Assay results reported in patent US10888099B2, “Granulation of a Stevia sweetener” (PureCircle Sdn Bhd, priority 2009, dated 2021).
Like-named read-outs stand apart in the source and are kept apart here. Where a SMILES comes first, the peptide text is derived from it.

Legend:
[1] = standard sweetening power, Saccharose = 1; cited from earlier work
[2] = format: physicochemical
Protocol: Hereinafter, unless specified otherwise, the solubility of a material is determined in reverse osmosis water at room temperature. […] The obtained powder was loaded into a 1000 L rotary vacuum dryer and dried at 105° C. at 10 mbar pressure for 3 hours. After 3 hours, preheated nitrogen at 100° C. was introduced into the vacuum chamber till ambient pressure was reached. Upon reaching ambient pressure, the vacuum dryer was connected to a vent and the nitrogen flow was continued at 100 L/min for a 4-hour time period. […] A sample of the powder was withdrawn from the dryer and the solubility tested in deionized water at room temperature.

[3] = cited from earlier work
[4] = cited from earlier work; for solubility: known Rebaudioside A forms, g soluble in 100 g solvent

In the case of `C=C1C[C@@]23CC[C@H]4[C@@](C)(CCC[C@@]4(C)C(=O)O[C@@H]4O[C@H](CO)[C@@H](O)[C@H](O)[C@H]4O)[C@@H]2CC[C@]1(O[C@@H]1O[C@H](CO)[C@@H](O)[C@H](O[C@@H]2O[C@H](CO)[C@@H](O)[C@H](O)[C@H]2O)[C@H]1O[C@@H]1O[C@H](CO)[C@@H](O)[C@H](O)[C@H]1O)C3` [Rebaudioside A], the Sweetness power [1] is listed as 450 and the solubility [2] is listed as 1.6%.

For `C=C1C[C@@]23CC[C@H]4[C@@](C)(CCC[C@@]4(C)C(=O)O[C@@H]4O[C@H](CO)[C@@H](O)[C@H](O)[C@H]4O)[C@@H]2CC[C@]1(O[C@@H]1O[C@H](CO)[C@@H](O)[C@H](O[C@@H]2O[C@H](CO)[C@@H](O)[C@H](O)[C@H]2O)[C@H]1O[C@@H]1O[C@H](CO)[C@@H](O)[C@H](O)[C@H]1O)C3` [Form 2, Rebaudioside A], the “Rate of dissolution in H2O at 25° C.” value ([3]; grade in words) is listed as “Intermediate”, the “Rate of dissolution in H2O at 25° C.” value ([3]; in 5 minutes) is listed as “(<30% in 5” and the solubility ([4]; listed as anhydrous form of Rebaudioside A) is listed as “up to 30%”. For the same compound, the solubility ([4]; listed as anhydrous form) was “up to 30%”.

For `OC[C@H]1O[C@@](CO)(O[C@H]2O[C@H](CO)[C@@H](O)[C@H](O)[C@H]2O)[C@@H](O)[C@@H]1O` [Saccharose], the Sweetness power [1] is given as 1.

In the case of `C=C1C[C@@]23CC[C@H]4[C@@](C)(CCC[C@@]4(C)C(=O)O[C@@H]4O[C@H](CO)[C@@H](O)[C@H](O)[C@H]4O)[C@@H]2CC[C@]1(O[C@@H]1O[C@H](CO)[C@@H](O)[C@H](O[C@@H]2O[C@H](CO)[C@@H](O)[C@H](O)[C@H]2O)[C@H]1O[C@@H]1O[C@H](CO)[C@@H](O)[C@H](O)[C@H]1O)C3` [high solubility Rebaudioside A powder, Rebaudioside A], the dissolution time ([2]; deionized water at room temperature) is reported as 7 min.

In the case of `CC1(C)[C@@H](O[C@H]2O[C@H](C(=O)O)[C@@H](O)[C@H](O)[C@H]2O[C@@H]2O[C@H](C(=O)O)[C@@H](O)[C@H](O)[C@H]2O)CC[C@]2(C)[C@H]3C(=O)C=C4[C@@H]5C[C@@](C)(C(=O)O)CC[C@]5(C)CC[C@@]4(C)[C@]3(C)CC[C@@H]12` [Glycyrrhizin], the Sweetness power [1] is listed as 50.

In the case of `O=C1NS(=O)(=O)c2ccccc21` [Saccharine], the Sweetness power [1] is given as 300.

In the case of `OC[C@H]1O[C@H](O[C@]2(CCl)O[C@H](CCl)[C@@H](O)[C@@H]2O)[C@H](O)[C@@H](O)[C@H]1Cl` [Sucralose], the Sweetness power [1] is listed as 600.

In the case of `CC1=CC(=O)NS(=O)(=O)O1` [Acesulfame-K], the Sweetness power [1] is listed as 200.

For Thaumatin, the Sweetness power [1] is listed as 3000.

In the case of `C=C1C[C@@]23CC[C@H]4[C@@](C)(CCC[C@@]4(C)C(=O)O[C@@H]4O[C@H](CO)[C@@H](O)[C@H](O)[C@H]4O)[C@@H]2CC[C@]1(O[C@@H]1O[C@H](CO)[C@@H](O)[C@H](O[C@@H]2O[C@H](CO)[C@@H](O)[C@H](O)[C@H]2O)[C@H]1O[C@@H]1O[C@H](CO)[C@@H](O)[C@H](O)[C@H]1O)C3` [Form 3, Rebaudioside A], the “Rate of dissolution in H2O at 25° C.” value ([3]; grade in words) is given as “High”, the “Rate of dissolution in H2O at 25° C.” value ([3]; in 5 minutes) is given as “(>30% in” and the solubility ([4]; listed as solvate form) is given as “greater than 30%”.

For `C[C@@H](NC(=O)[C@@H](N)CC(=O)O)C(=O)NC1C(C)(C)SC1(C)C` [Alitame], the Sweetness power [1] is given as 2000.

In the case of `C=C1C[C@@]23CC[C@H]4[C@@](C)(CCC[C@@]4(C)C(=O)O[C@@H]4O[C@H](CO)[C@@H](O)[C@H](O)[C@H]4O)[C@@H]2CC[C@]1(O[C@@H]1O[C@H](CO)[C@@H](O)[C@H](O[C@@H]2O[C@H](CO)[C@@H](O)[C@H](O)[C@H]2O)[C@H]1O[C@@H]1O[C@H](CO)[C@@H](O)[C@H](O)[C@H]1O)C3` [Form 4, Rebaudioside A], the “Rate of dissolution in H2O at 25° C.” value ([3]; grade in words) is given as “High”, the “Rate of dissolution in H2O at 25° C.” value ([3]; in 5 minutes) is given as “(>35% in” and the solubility ([4]; listed as amorphous form) is given as “greater than 35%”.

In the case of `C=C1C[C@@]23CC[C@H]4[C@@](C)(CCC[C@@]4(C)C(=O)O[C@@H]4O[C@H](CO)[C@@H](O)[C@H](O)[C@H]4O)[C@@H]2CC[C@]1(O[C@@H]1O[C@H](CO)[C@@H](O)[C@H](O)[C@H]1O[C@@H]1O[C@H](CO)[C@@H](O)[C@H](O)[C@H]1O)C3` [Stevioside], the Sweetness power [1] is listed as 200.

In the case of `COc1ccc(CCC(=O)c2c(O)cc(O[C@@H]3O[C@H](CO)[C@@H](O)[C@H](O)[C@H]3O[C@@H]3O[C@@H](C)[C@H](O)[C@@H](O)[C@H]3O)cc2O)cc1O` [NHDC, neohesperidin dihydrochalcone], the Sweetness power [1] is listed as 1000.

For `COC(=O)[C@H](Cc1ccccc1)NC(=O)[C@@H](N)CC(=O)O` [Aspartame] (H-Asp-Phe-OMe), the Sweetness power [1] is given as 200.

In the case of `C=C1C[C@@]23CC[C@H]4[C@@](C)(CCC[C@@]4(C)C(=O)O[C@@H]4O[C@H](CO)[C@@H](O)[C@H](O)[C@H]4O)[C@@H]2CC[C@]1(O[C@@H]1O[C@H](CO)[C@@H](O)[C@H](O[C@@H]2O[C@H](CO)[C@@H](O)[C@H](O)[C@H]2O)[C@H]1O[C@@H]1O[C@H](CO)[C@@H](O)[C@H](O)[C@H]1O)C3` [Form 1, Rebaudioside A], the “Rate of dissolution in H2O at 25° C.” value ([3]; grade in words) is listed as “Very low”, the “Rate of dissolution in H2O at 25° C.” value ([3]; in 60 minutes) is listed as “(<0.2% in” and the “solubility (in words)” value ([4]; compared among Rebaudioside A forms) is listed as “lowest solubility”. The solubility ([4]; listed as hydrate form) was “less than 0.2%”.
